According to US20250206761A1, “HALOINDOLE MACROCYCLIC COMPOUNDS FOR THE TREATMENT OF CANCER” (Hoffmann-La Roche Inc., priority 2022, published 2025):

Assays:
[1] = target: KRAS G12D binding to BRAF (Homo sapiens (Human), UniProt P01116+P62937, G12D); experiment: KRAS-BRAF with CYPA (500 nM) interaction assay (TR-FRET), G12D; assay type: biochemical
Description: (§1) In this example, TR-FRET was also used to measure the compound or compound-CYPA dependent disruption of the KRAS G12C-BRAF complex. This protocol was also used to measure disruption of KRAS G12D or KRAS G12V binding to BRAF by a compound of the invention, respectively. In assay buffer containing 25 mM HEPES PH=7.4 (4-(2-hydroxyethyl)-1-piperazineethanesulfonic acid, Thermo, 15630080), 0.002% Tween20, 0.1% BSA, 100 mM NaCl, 5 mM MgCl2, 10 μM GMPPNP (Guanosine 5′-[β,γ-imido]triphosphate trisodium salt hydrate, Sigma, G0635), […] 384-well assay plate at final concentrations of 50 nM, 6.25 nM and 1 nM, respectively. Compound was present in plate wells as a 16-point 3-fold dilution series starting at a final concentration of 10 μM and incubated for 3 hours. A mixture of MAb Anti-6His-XL665 (Cisbio, 61HISXLB) and Mab anti-GST-TB cryptate (Cisbio, 61GSTTLB) was then added at a final concentration of 6.67 nM and 0.21 nM, respectively, and the plate was incubated for an additional 1.5 hours. TR-FRET signal was read on a PHERstar FSX microplate reader (Ex320 nm, Em 665/615 nm). Compounds that facilitate disruption of the KRAS-BRAF complex were identified as those eliciting a decrease in the TR-FRET ratio relative to DMSO control wells.

KRAS G12C-BRAF complex = KRAS G12C-BRAF complex (Homo sapiens (Human), UniProt P01116+P62937, G12C); experiment: KRAS-BRAF with CYPA (500 nM) interaction assay (TR-FRET), G12C; assay type: biochemical
Description: as §1

[2] = system: NCI-H358 (ATCC-CRL5807) cells; experiment: Cell viability assay, G12C (NCI-H358); assay type: cell-based, human; settings: Homo sapiens; KRAS cell viability, NCI-H358, 72 hrs, Cell Counting Kit-8
Description: (§2) The purpose of this cellular assay was to determine the effects of test compounds on the proliferation of human cancer cell lines NCI-H358 (ATCC-CRL5807) cells, AGS (ATCC-CRL-1739) cells, SW620 (ATCC-CCL-227) over a 3-day treatment period by quantifying the amount of NADPH present at endpoint using Cell Counting Kit-8.
(§3) Cells were seeded at 5,000 cells/well (NCI-H358), 2,000 cells/well (AGS) 2,000 cells/well (SW620) in 96-well assay plates (Corning-3699) and incubated overnight. On the day of the assay, diluted compounds were then added in a final concentration of 0.5% DMSO. After 72 hrs incubation, a tenth of the volume of cell counting kit 8 (Dnjindo-CK04) was added into each well. Read the signal (OD450 minus OD650) using EnVision after 2 hrs incubation. IC50 was determined by fitting a 4-parameter sigmoidal concentration response model.

[3] = system: phosphorylation of ERK, KRAS G12V in SW620; experiment: pERK inhibition assay, KRAS G12V; assay type: cell-based, human; settings: Homo sapiens, SW-620, SW620, 4 hours
Description: (§4) This assay is to measure the ability of test compounds in inhibiting the phosphorylation of ERK, the downstream signaling of KRAS G12C in NCJ-H358 cells, KRAS G12D in AGS cells, and KRAS G12V in SW620. NCJ-H358 (ATCC-CRL5807) cells, AGS (ATCC-CRL-1739) cells, SW620 (ATCC-CCL-227) cells were all grown and maintained using RPMI-1640 medium (Thermo Fisher Scientific) with 10% fetal bovine serum and 1% penicillin/streptomycin. On the day prior to compound addition, cells were plated in tissue culture-treated 96 well plates (Corning-3699) at a density of 30,000 cell/well, 20,000 cell/well, 30,000 cell/well for NCJ-H358, AGS and SW620 respectively, and allowed for attachment overnight. Diluted compounds were then added in a final concentration of 0.5% DMSO. After 4 hours of incubation, the medium was removed, 100 μL of 4% formaldehyde was added, and the assay plates were incubated at room temperature for 20 minutes. The plates were then washed once with phosphate buffered saline (PBS), and permeabilized with 100 μL of chilled methanol for 10 minutes. Non-specific antibody binding to the plates was blocked using 50 μL 1×BSA blocking buffer (Thermo-37520, 10-fold dilution by Phosphate-Buffered Saline Tween (PBST) for at least 1 hour at room temperature.
(§5) The amount of phosphor-ERK was determined using an antibody specific for phosphorylated form of ERK. Primary antibody (pERK, CST-4370, Cell Signaling Technology) was diluted 1:300 in blocking buffer, with 50 μL aliquoted to each well, and incubated overnight at 4′° C. Cells was washed five times for 5 minutes with PBST. Secondary antibody ([…] anti-rabbit IgG, CST-7074, Cell Signaling Technology) was diluted 1:1000 in blocking buffer, and 50 μL was added to each well and incubated 1-2 hrs at room temperature. Cells was washed 5 times for 5 minutes with PBST, 100 μL TMB ELISA substrate (abcam-ab171523) were added and gently shake for 20 minutes. 50 μL stop solution (abcam-ab171529) were added, and then read the signal (OD450) by EnVision.
(§6) IC50 was determined by fitting a 4-parameter sigmoidal concentration response model.

[4] = system: phosphorylation of ERK, KRAS G12C in NCJ-H358 cells; experiment: pERK inhibition assay, KRAS G12C; assay type: cell-based, human; settings: Homo sapiens, 4 hours
Description: as §4, §5, §6

[5] = system: AGS (ATCC-CRL-1739) cells; experiment: Cell viability assay, G12D (AGS); assay type: cell-based, human; settings: Homo sapiens, KRAS cell viability, 72 hrs, Cell Counting Kit-8
Description: as §2, §3

[6] = target: KRAS G12V binding to BRAF (Homo sapiens (Human), UniProt P01116+P62937, G12V); experiment: KRAS-BRAF with CYPA (500 nM) interaction assay (TR-FRET), G12V; assay type: biochemical
Description: In this example, TR-FRET was also used to measure the compound or compound-CYPA dependent disruption of the KRAS G12C-BRAF complex. This protocol was also used to measure disruption of KRAS G12D or KRAS G12V binding to BRAF by a compound of the invention, respectively. In assay buffer containing 25 mM HEPES PH=7.4 (4-(2-hydroxyethyl)-1-piperazineethanesulfonic acid, Thermo, 15630080), 0.002% Tween20, 0.1% BSA, 100 mM NaCl, 5 mM MgCl2, 10 μM GMPPNP (Guanosine 5′-[β,γ-imido]triphosphate trisodium salt hydrate, Sigma, G0635), […], GMPPNP loaded 6His-KRAS proteins, and […], 6.25 nM and 1 nM, respectively. Compound was present in plate wells as a 16-point 3-fold dilution series starting at a final concentration of 10 μM and incubated for 3 hours. A mixture of MAb Anti-6His-XL665 (Cisbio, 61HISXLB) and Mab anti-GST-TB cryptate (Cisbio, 61GSTTLB) was then added at a final concentration of 6.67 nM and 0.21 nM, respectively, and the plate was incubated for an additional 1.5 hours. TR-FRET signal was read on a PHERstar FSX microplate reader (Ex320 nm, Em 665/615 nm). Compounds that facilitate disruption of the KRAS-BRAF complex were identified as those eliciting a decrease in the TR-FRET ratio relative to DMSO control wells.

SW620 (ATCC-CCL-227) = experiment: Cell viability assay, G12V (SW620); assay type: cell-based, human; settings: Homo sapiens, SW-620; KRAS cell viability, SW620, 72 hrs, Cell Counting Kit-8
Description: as §2, §3

KRAS G12D binding to BRAF, sequence (P01116-2 other isoform, or with tags, fused parts or gaps G12D): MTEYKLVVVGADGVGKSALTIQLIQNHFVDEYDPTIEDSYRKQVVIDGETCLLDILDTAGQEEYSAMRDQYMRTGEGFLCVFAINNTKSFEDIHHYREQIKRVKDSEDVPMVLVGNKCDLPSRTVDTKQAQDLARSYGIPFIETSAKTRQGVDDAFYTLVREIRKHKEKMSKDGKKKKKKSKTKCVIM
KRAS G12D binding to BRAF, sequence (P62937 whole entry): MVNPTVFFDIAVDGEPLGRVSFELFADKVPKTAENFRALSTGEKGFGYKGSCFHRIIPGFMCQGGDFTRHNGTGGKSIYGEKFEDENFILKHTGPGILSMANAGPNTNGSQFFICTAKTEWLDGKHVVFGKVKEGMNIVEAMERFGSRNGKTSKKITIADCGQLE
KRAS G12V binding to BRAF, sequence (P01116-2 other isoform, or with tags, fused parts or gaps G12V): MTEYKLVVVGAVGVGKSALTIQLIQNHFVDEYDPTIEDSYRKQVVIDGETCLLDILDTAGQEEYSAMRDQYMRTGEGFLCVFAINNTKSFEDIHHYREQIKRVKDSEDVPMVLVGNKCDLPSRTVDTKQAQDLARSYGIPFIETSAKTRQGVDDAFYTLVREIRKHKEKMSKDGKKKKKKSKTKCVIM
KRAS G12V binding to BRAF, sequence (P62937 whole entry): as the sequence (P62937 whole entry) above
KRAS G12C-BRAF complex, sequence (P01116-2 other isoform, or with tags, fused parts or gaps G12C): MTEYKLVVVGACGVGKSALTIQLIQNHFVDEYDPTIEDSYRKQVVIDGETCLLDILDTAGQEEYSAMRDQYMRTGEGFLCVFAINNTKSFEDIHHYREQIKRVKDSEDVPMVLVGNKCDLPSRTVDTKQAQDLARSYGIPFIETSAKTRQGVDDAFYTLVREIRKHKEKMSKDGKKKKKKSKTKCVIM
KRAS G12C-BRAF complex, sequence (P62937 whole entry): as the sequence (P62937 whole entry) above

Row | SMILES | IC50 [1] [µM] | IC50 (KRAS G12C-BRAF complex) [µM] | IC50 [2] [µM] | IC50 [3] [µM] | IC50 [4] [µM] | IC50 [5] [µM] | IC50 [6] [µM] | IC50 (SW620 (ATCC-CCL-227)) [µM]
1 | CO[C@@H](C)c1ncc(N2CCN(CC(F)(F)F)CC2)cc1-c1c2c3cc(c(F)cc3n1CC(F)(F)F)-c1csc(n1)C[C@H](NC(=O)[C@H](C(C)C)N1CC[C@@]3(CCN(C(=O)[C@H](F)Cl)C3)C1=O)C(=O)N1CCC[C@H](N1)C(=O)OCC(C)(C)C2 (atropisomer, axis not shown) [Example 43, (2S)-2-[(5R)-7-[(2R)-2-chloro-2-fluoro-acetyl]-1-oxo-2,7-diazaspiro[4.4]nonan-2-yl]-N-[(7S,13S)-24-fluoro-20-[2-[(1S)-1-methoxyethyl]-5-[4-(2,2,2-trifluoroethyl)piperazin-1-yl]-3-pyridyl]-17,17-dimethyl-8,14-dioxo-21-(2,2,2-trifluoroethyl)-15-oxa-4-thia-9,21,27,28-tetrazapentacyclo[17.5.2.1^2,5.1^9,13.0^22,26]octacosa-1(25),2,5(28),19,22(26),23-hexaen-7-yl]-3-methyl-butanamide] | 2.2 | 0.022 | < 0.001 | 0.044 | 0.006 | 0.067 | 1.69 | 0.171
2 | CCn1c(-c2cc(N3CCN(C)CC3)cnc2[C@H](C)OC)c2c3cc(c(F)cc31)-c1csc(n1)C[C@H](NC(=O)[C@H](C(C)C)N(C)C(=O)C1(F)CCN(C(=O)[C@H](F)Cl)CC1)C(=O)N1CCC[C@H](N1)C(=O)OCC(C)(C)C2 (atropisomer, axis not shown; (M)) [Example 34, 1-[(2R)-2-chloro-2-fluoro-acetyl]-N-[(1S)-1-[[(7S,13S)-21-ethyl-24-fluoro-(20M)-20-[2-[(1S)-1-methoxyethyl]-5-(4-methylpiperazin-1-yl)-3-pyridyl]-17,17-dimethyl-8,14-dioxo-15-oxa-4-thia-9,21,27,28-tetrazapentacyclo[17.5.2.1^2,5.1^9,13.0^22,26]octacosa-1(25),2,5(28),19,22(26),23-hexaen-7-yl]carbamoyl]-2-methyl-propyl]-4-fluoro-N-methyl-piperidine-4-carboxamide] | 0.909 | 0.047 | < 0.001 | 0.012 | 0.002 | 0.043 | 0.724 | 0.04
3 | CCn1c(-c2cc(N3CCN(CC(F)(F)F)CC3)cnc2[C@H](C)OC)c2c3cc(c(F)cc31)-c1csc(n1)C[C@H](NC(=O)[C@H](C(C)C)N1CC[C@@]3(CCN(C(=O)[C@H](F)Cl)C3)C1=O)C(=O)N1CCC[C@H](N1)C(=O)OCC(C)(C)C2 (atropisomer, axis not shown; (M)) [Example 35, (2S)-2-[(5R)-7-[(2R)-2-chloro-2-fluoro-acetyl]-1-oxo-2,7-diazaspiro[4.4]nonan-2-yl]-N-[(7S,13S)-21-ethyl-24-fluoro-(20M)-20-[2-[(1S)-1-methoxyethyl]-5-[4-(2,2,2-trifluoroethyl)piperazin-1-yl]-3-pyridyl]-17,17-dimethyl-8,14-dioxo-15-oxa-4-thia-9,21,27,28-tetrazapentacyclo[17.5.2.1^2,5.1^9,13.0^22,26]octacosa-1(25),2,5(28),19,22(26),23-hexaen-7-yl]-3-methyl-butanamide] | 3.22 | 0.023 | < 0.001 | 0.05 | 0.003 | 0.069 | > 10 | 3.53
4 | CCn1c(-c2cc(N3CCN(C)CC3)cnc2[C@H](C)OC)c2c3cc(c(F)cc31)-c1csc(n1)C[C@H](NC(=O)[C@H](C(C)C)N1CCCC3(CCN(C(=O)[C@H](F)Cl)CC3)C1=O)C(=O)N1CCC[C@H](N1)C(=O)OCC(C)(C)C2 (atropisomer, axis not shown; (M)) [Example 36, (2S)-2-[9-[(2R)-2-chloro-2-fluoro-acetyl]-1-oxo-2,9-diazaspiro[5.5]undecan-2-yl]-N-[(7S,13S)-21-ethyl-24-fluoro-(20M)-20-[2-[(1S)-1-methoxyethyl]-5-(4-methylpiperazin-1-yl)-3-pyridyl]-17,17-dimethyl-8,14-dioxo-15-oxa-4-thia-9,21,27,28-tetrazapentacyclo[17.5.2.1^2,5.1^9,13.0^22,26]octacosa-1(25),2,5(28),19,22(26),23-hexaen-7-yl]-3-methyl-butanamide] | 3.94 | 0.038 | < 0.001 | 0.013 | 0.003 | 0.03 | > 10 | 0.132
